# Assay results: PMC10580953, “In vitro and intracellular activities of novel thiopeptide derivatives against macrolide-susceptible and macrolide-resistant Mycobacterium avium complex” (Microbiology Spectrum, 2023)
# Entries after “also recorded” stand apart in the source; their conditions may differ.
# Tests used:
# MAC in murine BMDMs = assay: Intracellular anti-MAC activity in infected BMDMs, summary statements for MAC; assay type: cell-based, Mycobacterium avium complex; conditions: for intracellular activity in BMDMs infected with macrolide-resistant MAC clinical isolates: 10 µg/mL, 72 h (Fig. 5 and 6)
# Experimental: (§1) BMDMs were obtained from 6-week-old female BALB/c mice. Bone marrow cells were differentiated into BMDMs using Dulbecco’s Modified Eagle Medium (Biowest) supplemented with 10% fetal bovine serum (Biowest) and 10% L929 cell supernatant as previously described ([58]).
# (§2) BMDMs were seeded at 4 × 10^5 cells/mL in a 48-well plate and incubated overnight at 37°C. MAC strains were infected at a multiplicity of infection of 3 for 4 h and washed with DPBS twice. The cells were then cultured in the absence or presence of drugs in triplicate wells for 72 h. After incubation, the cells were lysed with 0.05% Triton X-100, and the cell lysates serially diluted with DPBS were spotted on 7H10 agar plates supplemented with OADC to count the number of viable bacteria. Colonies were enumerated after 7 d of incubation at 37°C, and the values are reported as the mean CFU ± standard deviation (SD) per mL. All experiments were repeated at least three times independently.
# [1] = tested on: macrolide-resistant M. avium; assay: MIC by REMA, macrolide-resistant M. avium strains
# Description: (§4) Reference strains were purchased from the American Type Culture Collection (ATCC; Manassas, VA, USA). All clinical MAC isolates, including macrolide-susceptible and macrolide-resistant strains, were kindly provided by Samsung Medical Center (SMC; Seoul, South Korea) and Asan Medical Center (AMC; Seoul, South Korea). All strains were cultivated in Middlebrook 7H9 liquid broth (Difco Laboratories, Detroit, MI) supplemented with 10% oleic acid-albumin-dextrose-catalase (OADC) or plated on Middlebrook 7H10 agar (Difco Laboratories) with 10% OADC enrichment at 37°C.
# (§5) The MICs of all the reagents were determined using the REMA method based on guidelines by the Clinical and Laboratory Standards Institute ([57]). […] The cultures were diluted to an OD600 = 0.001 in 7H9 broth with 5% OADC. […] Two controls (broth only and bacteria only) were incubated to check for other contamination (broth only) and the growth of tested bacteria (bacteria only).
# (§6) PCR amplification and sequencing for CLR were based on 23S rRNA. The primers and PCR conditions were as reported previously ([59]). PCR was carried out in a final volume of 20 µL and contained EzPCR Basic 5 × premix (ELPIS, Daejeon, South Korea), 13 µL of sterile dH2O, 1 µL of each forward and reverse primer, and 1 µL of template DNA. The PCR products were run on 1% agarose gels and purified using a NEXprep Gel/PCR Purification Mini Kit (Geneslabs, Gyeonggi, South Korea) for DNA cleanup. Purified PCR products were sequenced by Sanger sequencing in Bionics (Seoul, South Korea) with their gene-specific forward and reverse primers. Sequences obtained from Bionics were subjected to BLAST searches to compare nucleotide sequences with reference strains.
# M. avium = assay: MIC by resazurin microtiter assay (REMA), M. avium strains
# Experimental: (§7) Reference strains were purchased from the American Type Culture Collection (ATCC; Manassas, VA, USA). […] All strains were cultivated in Middlebrook 7H9 liquid broth (Difco Laboratories, Detroit, MI) supplemented with 10% oleic acid-albumin-dextrose-catalase (OADC) or plated on Middlebrook 7H10 agar (Difco Laboratories) with 10% OADC enrichment at 37°C.
# as §5
# [2] = tested on: macrolide-resistant M. intracellulare; assay: MIC by REMA, macrolide-resistant M. intracellulare strains; conditions: Mycobacterium intracellulare
# Description: as §4, §5, §6
# M. intracellulare = assay: MIC by resazurin microtiter assay (REMA), M. intracellulare strains
# Experimental: as §7, §5
# [3] = Aqueous kinetic solubility; assay type: physicochemical; conditions: for solubility at 2 h: aqueous buffer, kinetic from dmso stock, free form, deionized water pH 7.4, 1% DMSO; for Fold increase, Free form: solubility of free form compared to MP2; for solubility: thermodynamic from solid, HCl salt in deionized water
# Experimental: The aqueous kinetic solubility was determined by preparing a 20 mM DMSO stock solution of test compounds and incubating an aliquot of this solution in deionized water at pH 7.4 to set a 1% final concentration of DMSO. In the case of HCl salt compounds, 1–2 mg of compound was weighed and dissolved in deionized water to yield an approximately 10 mg/mL solution. After initial mixing using brief vortexing and sonication, samples were equilibrated by shaking for 2 h at room temperature. Suspensions or solutions with visible particles were filtered through 0.22 µm PVDF membrane filters. The dissolved drug concentration was analyzed using UPLC-MS. To determine the solubility of the HCl salt, 1 mg of compound was weighed into a 2 mL glass tube, and a fixed volume of deionized water was added to yield an approximately 10 mg/mL solution. The solution was equilibrated by shaking for 24 h at room temperature. After equilibration, the vials were visually examined. If a clear solution was obtained, solubility was reported as >mg/mL.
# [4] = tested on: macrolide-resistant M. avium clinical isolates in BMDMs; assay: Intracellular activity in BMDMs, macrolide-resistant M. avium clinical isolates; assay type: cell-based, Mycobacterium avium; conditions: five macrolide-resistant M. avium clinical isolates, 10 µg/mL, 72 h (Fig. 5)
# Experimental: as §1, §2
# M. avium ATCC 700898 = conditions: for drug-drug interaction with CLR: synergism FICI ≤0.5, additive 0.5 < FICI ≤ 1, indifferent 1 < FICI ≤ 4, antagonistic FICI >4
# Experimental: (§3) To evaluate the efficacy of the combination of agent A and agent B, a fractional inhibitory concentration (FIC) index was calculated as follows: FICI = (FIC of agent A) + (FIC of agent B) = (MIC of agent A in combination/MIC of agent A alone) + (MIC of agent B in combination/MIC of agent B alone). Synergism is defined as FICI ≤0.5, additive as 0.5 < FICI ≤ 1, indifferent as 1 < FICI ≤ 4, and antagonistic as FICI >4. The cultured bacteria were diluted to a 0.005 OD600 in 7H9 broth containing 5% OADC, and the antimicrobial agents were prepared by serial dilutions to a final concentration of 0.03–4 μg/mL. For the evaluation of inhibitory concentrations, the plates were incubated at 37°C for 5–7 d. Then, MIC values were assessed by REMA, and the FICI was calculated.
# [5] = tested on: M. intracellulare ATCC 13950; conditions: for drug-drug interaction with CLR: synergism FICI ≤0.5, additive 0.5 < FICI ≤ 1, indifferent 1 < FICI ≤ 4, antagonistic FICI >4
# Experimental: as §3
# M. avium in murine BMDMs = assay: Intracellular anti-MAC activity in infected BMDMs, M. avium; assay type: cell-based, Mycobacterium avium
# Experimental: as §1, §2
# [6] = Mycobacterium avium, M. avium (SMC#420), 23S rRNA A2058/A2059 C/A
# [7] = Mycobacterium avium, M. avium (SMC#422), 23S rRNA A2058/A2059 A/G
# [8] = Mycobacterium avium, M. avium (SMC#1213), 23S rRNA A2058/A2059 T/A
# [9] = Mycobacterium avium, ATCC700898
# [10] = Mycobacterium avium, M. avium (SMC#6)
# [11] = Mycobacterium avium, M. avium (SMC#1637)
# [12] = M. intracellulare (AMC#24), 23S rRNA A2058/A2059 G/A
# [13] = M. intracellulare (SMC#104), 23S rRNA A2058/A2059 G/A
# [14] = M. intracellulare (SMC#400), 23S rRNA A2058/A2059 C/A
# [15] = M. intracellulare (SMC#414), 23S rRNA A2058/A2059 A/G
# [16] = M. intracellulare (SMC#418), 23S rRNA A2058/A2059 G/A
# [17] = Mycobacterium intracellulare, ATCC13950, M. intracellulare (ATCC 13950), reference strain
# [18] = Mycobacterium intracellulare, M. intracellulare (SMC#8)
# [19] = Mycobacterium intracellulare, M. intracellulare (SMC#12)
# [20] = M. avium (SMC#1216), 23S rRNA A2058/A2059 C/A
# [21] = combination with CLR, synergism FICI ≤0.5, additive 0.5 < FICI ≤ 1
structure (smiles),measurement,setting,value
"CC[C@H]1OC(=O)[C@H](C)[C@@H](O[C@H]2C[C@@](C)(OC)[C@@H](O)[C@H](C)O2)[C@H](C)[C@@H](O[C@@H]2O[C@H](C)C[C@H](N(C)C)[C@H]2O)[C@](C)(OC)C[C@@H](C)C(=O)[C@H](C)[C@@H](O)[C@]1(C)O [CLR, clarithromycin, reference compound]",intracellular activity in BMDMs infected with macrolide-resistant MAC clinical isolates,MAC in murine BMDMs,resistance
same,MIC,"[1]; Mycobacterium avium, M. avium (SMC#417), 23S rRNA A2058/A2059 C/A",> 64 mg/L
same,MIC,[1]; [6],> 64 mg/L
same,MIC,[1]; [7],> 64 mg/L
same,MIC,[1]; [8],> 64 mg/L
same,MIC,"[1]; Mycobacterium avium, M. avium (SMC#1216), 23S rRNA A2058/A2059 C/A",> 64 mg/L
same,MIC,M. avium; M. avium (SMC#7),0.5 mg/L
same,MIC,M. avium; Mycobacterium avium,0.5 mg/L
same,MIC,M. avium; [9],0.5 mg/L
same,MIC,M. avium; [10],0.125 mg/L
same,MIC,M. avium; [11],0.125 mg/L
same,MIC,[2]; [12],> 64 mg/L
same,MIC,[2]; [13],> 64 mg/L
same,MIC,[2]; [14],> 64 mg/L
same,MIC,[2]; [15],> 64 mg/L
same,MIC,[2]; [16],> 64 mg/L
same,MIC,M. intracellulare; M. intracellulare (SMC#9),0.125 mg/L
same,MIC,M. intracellulare; M. intracellulare (SMC#699),0.125 mg/L
same,MIC,M. intracellulare; M. intracellulare (SMC#831),0.125 mg/L
same,MIC,M. intracellulare; M. intracellulare (SMC#2087),0.125 mg/L
same,MIC,M. intracellulare; Mycobacterium intracellulare,0.125 mg/L
same,MIC,M. intracellulare; [17],0.25 mg/L
same,MIC,M. intracellulare; [18],0.25 mg/L
same,MIC,M. intracellulare; [19],0.25 mg/L
C/C=C1\NC(=O)[C@H]([C@@H](C)O)NC(=O)c2csc(n2)-c2ccc(-c3nc(-c4nc(C(=O)NC5(C(=O)NCCN6CCN(C[C@@H](O)CO)CC6)CC5)cs4)cs3)nc2-c2csc(n2)[C@H]([C@@H](C)O)NC(=O)c2csc(n2)[C@H](C(C)C)NC(=O)c2csc1n2 [AJ-206],solubility at 2 h,[3],0.102 mg/mL
same,"Fold increase, Free form",[3],"×1,457 fold"
same,solubility,[3],> 10 mg/mL
same,intracellular growth of MAC in BMDMs,"MAC in murine BMDMs; MAC-infected BMDMs, 72 h (Fig. 2)",remarkably inhibited the intracellular growth of MAC to a similar degree as CLR; also recorded: significantly reduced the number of MAC CFUs inside macrophages
same,intracellular activity in BMDMs infected with macrolide-resistant MAC clinical isolates,MAC in murine BMDMs,significant decrease in CFUs
same,intracellular bacterial growth in BMDMs,[4],notably inhibited intracellular bacterial growth
same,drug-drug interaction with CLR,M. avium ATCC 700898,strongest synergistic effect; also recorded: Synergistic effects
same,drug-drug interaction with CLR,[5],relatively weak but synergistic effect; also recorded: Synergistic effects
same,MIC,[1]; [20],0.125 mg/L
same,MIC,[1]; Mycobacterium avium,0.125 mg/L
same,MIC,[1]; [6],0.5 mg/L
same,MIC,[1]; [7],1 mg/L
same,MIC,[1]; [8],1 mg/L
same,MIC,M. avium; M. avium (SMC#7),0.5 mg/L
same,MIC,M. avium; Mycobacterium avium,0.5 mg/L
same,MIC,M. avium; [9],0.5 mg/L
same,MIC,M. avium; [10],0.125 mg/L
same,MIC,M. avium; [11],0.125 mg/L
same,MIC,[2]; [12],0.125 mg/L
same,MIC,[2]; [13],0.125 mg/L
same,MIC,[2]; [15],0.125 mg/L
same,MIC,M. intracellulare; M. intracellulare (SMC#831),0.125 mg/L
same,MIC,M. intracellulare; M. intracellulare (SMC#2087),0.125 mg/L
same,MIC,M. intracellulare; Mycobacterium intracellulare,0.125 mg/L
same,MIC,M. intracellulare; [17],0.5 mg/L
same,MIC,"M. intracellulare; Mycobacterium intracellulare, M. intracellulare (SMC#7)",0.25 mg/L
same,MIC,M. intracellulare; [18],0.5 mg/L
same,MIC,M. intracellulare; [19],0.5 mg/L
same,MIC,"M. intracellulare; Mycobacterium intracellulare, M. intracellulare (SMC#699)",0.5 mg/L
"COc1nc2ccc(Br)cc2cc1[C@@H](c1ccccc1)[C@@](O)(CCN(C)C)c1cccc2ccccc12 [bedaquiline, reference compound]",drug-drug interaction with CLR,M. avium ATCC 700898,synergistic effects were not observed
same,drug-drug interaction with CLR,[5],synergistic effects were not observed
C/C=C1\NC(=O)[C@H]([C@@H](C)O)NC(=O)c2csc(n2)-c2ccc(-c3nc(-c4nc(C(=O)NC5(C(=O)NCCCN6C(=O)CNC6=O)CC5)cs4)cs3)nc2-c2csc(n2)[C@H]([C@@H](C)O)NC(=O)c2csc(n2)[C@H](C(C)C)NC(=O)c2csc1n2 [AJ-039],solubility at 2 h,[3],0.00298 mg/mL
same,"Fold increase, HCl salt",[3]; solubility of HCl salt compared to MP2,×360 fold
same,"Fold increase, Free form",[3],×43 fold
same,solubility,[3],0.0252 mg/mL
same,"CFUs in BMDMs, drug alone",M. avium in murine BMDMs; M. avium SMC#7 (Fig. 2C),did not reduce CFUs
same,intracellular activity of combination with CLR compared to CLR alone,"M. avium in murine BMDMs; M. avium SMC#7, each drug 10 µg/mL, 72 h",not significant compared to that of CLR alone
same,intracellular activity in BMDMs infected with macrolide-resistant MAC clinical isolates,MAC in murine BMDMs,relatively little activity
same,FICI,M. avium ATCC 700898; [21],0.54
same,drug-drug interaction with CLR,M. avium ATCC 700898,additive effect
same,FICI,[5]; [21],0.56
same,drug-drug interaction with CLR,[5],additive effect
same,MIC,[1]; [20],0.125 mg/L
same,MIC,[1]; Mycobacterium avium,0.125 mg/L
same,MIC,[1]; [6],0.5 mg/L
same,MIC,[1]; [7],4 mg/L
same,MIC,[1]; [8],2 mg/L
same,MIC,"M. avium; Mycobacterium avium, ATCC700898, M. avium (ATCC 700898), reference strain",0.125 mg/L
same,MIC,"M. avium; Mycobacterium avium, M. avium (CP000479.1), reference strain",0.125 mg/L
same,MIC,M. avium; [10],0.125 mg/L
same,MIC,"M. avium; Mycobacterium avium, M. avium (SMC#7)",0.125 mg/L
same,MIC,M. avium; [11],0.125 mg/L
same,MIC,[2]; [12],0.125 mg/L
same,MIC,[2]; [13],0.125 mg/L
same,MIC,[2]; [14],0.125 mg/L
same,MIC,[2]; [15],0.125 mg/L
same,MIC,[2]; [16],0.125 mg/L
same,MIC,M. intracellulare; M. intracellulare (SMC#8),0.125 mg/L
same,MIC,M. intracellulare; M. intracellulare (SMC#9),0.125 mg/L
same,MIC,M. intracellulare; M. intracellulare (SMC#12),0.125 mg/L
same,MIC,M. intracellulare; M. intracellulare (SMC#699),0.125 mg/L
same,MIC,M. intracellulare; M. intracellulare (SMC#831),0.125 mg/L
same,MIC,M. intracellulare; M. intracellulare (SMC#2087),0.125 mg/L
same,MIC,M. intracellulare; Mycobacterium intracellulare,0.125 mg/L
same,MIC,"M. intracellulare; Mycobacterium intracellulare, ATCC13950",0.125 mg/L
